Test results from patent publication US20230085945A1, “ORTHOGONAL SAFETY SWITCHES TO ELIMINATE GENETICALLY ENGINEERED CELLS” (The Board of Trustees of the Leland Stanford Junior …, priority 2020, published 2023).

What was measured:
[1] = tested on: undifferentiated NANOG^iCasp9-YFP hPSCs; assay: Clonal assay for surviving hPSC colonies after AP20187 treatment; assay type: cell-based, human; conditions: 1 nM AP20, 24-hour treatment; across 7 independent experiments
Protocol: FIG. 3: Implementation of the NANOG^iCasp9-YFP safety switch. A) Schema depicting how drug AP20187 induces dimerization of Caspase9 in undifferentiated NANOG^iCasp9-YFP hESCs, subsequently triggering cell death (top left). NANOG^iCasp9-YFP hESCs were treated for 24 hours with increasing concentrations of AP20187. AP20187 was withdrawn, and cultures were further grown in mTeSR1 to allow any surviving hESCs to grow; any surviving colonies were counted 1 week later (top right). Alkaline phosphatase staining of whole wells of a 12-well plate after 24-hour treatment with AP20187 (bottom). […] Bioluminescent imaging of mice occurred weekly for 5 weeks with no transplant control (NTC) animals included for relative luminescence normalization. Total flux (photons/sec) was measured for each animal and averaged. […] The percentage of surviving cells was calculated relative to untreated controls. […]
Clonal assay for surviving hPSC colonies—hPSCs were dissociated into single cells with Accutase (Thermo Fisher) and 1×10^6 cells were plated per well of a 6-well plate that was pre-coated with Matrigel. […] Subsequently, AP20187 was withdrawn altogether and hPSCs were cultured with mTeSR1 for 1 week, to allow any surviving hPSCs to regrow and to form clonal colonies, which were then scored (i.e., 1 surviving colony after AP20187 treatment of 1×10^6 hPSCs indicated survival of 1 out of 10^6 cells). […]

[2] = tested on: NANOG mRNA and differentiation marker genes in NANOG^iCasp9-YFP hPSCs and differentiated cell-types; assay: qPCR of NANOG and marker gene expression after AP20187; assay type: cell-based, human; conditions: for expression of differentiation markers in differentiated cell-types: AP20187 1 nM, 24 hours
Protocol: FIG. 9: Efficacy of the NANOG^iCasp9-YFP safety switch (related to FIG. 3). A) Undifferentiated NANOG^iCasp9-YFP hPSCs were treated with AP20187 at the indicated concentrations for 24 hours, and then the percentage of viable remaining cells was subsequently analyzed using FACS analysis (left) and alamar blue staining (right). For the FACS analysis, the percentage of cells shown represents viable cells (i.e., DAPI-negative cells obtained after DAPI staining) that were then gated for YFP+ (i.e., NANOG^+) cells. For the alamar blue analysis, wild-type hPSCs were used as a negative control. […] AP20187 doses equal to or greater than 100 nM may prevent efficient killing of NANOG^iCasp9-YFP hPSCs by considerably downregulating NANOG. Gene expression is depicted normalized to the reference gene YWHAZ (i.e., YWHAZ=1.0). C) Undifferentiated NANOG^iCasp9-YFP hPSCs were treated with the indicated doses of AP20187 for various lengths of time (6, 12, 24, 48, 72 hours) and then alamar blue assay was performed immediately thereafter to quantify the extent of cell death. […] D) Immunofluorescent imaging of NANOG^iCasp9-YFP hESCs in the undifferentiated state and after differentiation into day 6 sclerotome as marked by TWIST1 expression, both without and with treatment of cells with 1 nM AP20187 for 24 hours. […] The following marker genes were assessed in each respective cell-type: sclerotome (bone) progenitors (TWIST1, SOX9, PAX1, PAX9), liver progenitors (SOX17, HNF4A, AFP, TBX3), and forebrain (neural) progenitors (PAX6, FOXG1, OTX2, SIX3). F) Further validation of NANOG^iCasp9-YFP using a simulated mixed cell culture assay. NANOG^iCasp9-YFP undifferentiated hPSCs and hPSC-derived derived sclerotome cells were mixed at a 3:7 ratio, respectively. Mixed cells were treated with AP20187, and 24 hours post-treatment, FACS analysis was done to assess remaining NANOG^iCasp9-YFP hPSCs in culture.
RNA extraction, reverse transcription and quantitative PCR. Undifferentiated or differentiated hPSCs were lysed in […] of RLT Plus Buffer and RNA was extracted using the RNeasy Plus Mini Kit (Qiagen) according to the manufacturer's protocol. 300 ng of total RNA was reverse transcribed into cDNA for qPCR using the High-Capacity cDNA Reverse Transcription Kit (Applied Biosystems) according to the manufacturer's protocol. qPCR was performed in 384-well format as previously described (Loh et al., 2016) on a QuantStudio 5 qPCR machine (Thermo Fisher). Expression of all genes was first normalized to the levels of the reference gene YWHAZ, and then plotted relative to the levels of YWHAZ (i.e., 1.0=equivalent to YWHAZ). The following forward and reverse primer sequences were used to detect the expression of the respective genes: […]

CC[C@H](C(=O)N1CCCC[C@H]1C(=O)O[C@H](CCc1ccc(OC)c(OC)c1)c1cccc(OCC(=O)NCC(CNC(=O)COc2cccc([C@@H](CCc3ccc(OC)c(OC)c3)OC(=O)[C@@H]3CCCCN3C(=O)[C@@H](CC)c3cc(OC)c(OC)c(OC)c3)c2)CN(C)C)c1)c1cc(OC)c(OC)c(OC)c1 [AP20]
depletion of undifferentiated hPSCs [1]: 1.75×10^6 fold
expression of differentiation markers in differentiated cell-types [2]: not substantially effected
expression of differentiation markers in differentiated cell-types ([2]; listed as AP20187): did not substantially impact marker gene expression
doses that may prevent efficient killing by considerably downregulating NANOG ([2]; NANOG^iCasp9-YFP hPSCs): ≥ 100 nM
NANOG mRNA expression in undifferentiated hPSCs ([2]; increasing doses of AP20187): downregulated NANOG mRNA expression
